{"source": "patent US7511074B2", "about": "“Tetrafluorobenzyl derivatives and pharmaceutical composition for preventing and treating acute and chronic neurodegenerative diseases in central nervous system containing the same” (AmKor Pharma, Inc., priority 2002, dated 2009)", "key": {"[1]": {"test": "DPPH free radical scavenging assay", "assay_type": "biochemical", "conditions": "100 μM DPPH in ethanol; absorption at 517 nm; 1-100 μM", "description": "2-Hydroxy-TTBA (●) or trolox (◯) was reacted with 100 uM 1,1-diphenyl-2-picrylhydrazil (DPPH, a stable free radical) dissolved in ethanol for […]. The radical scavenging activity was determined by measuring the decrease in DPPH levels at 517 nm. *, Significant difference from the vehicle control, p<0.05 using ANOVA and Student-Neuman-Keuls' test.\n2-Hydroxy-TTS (●), 2-Hydroxy-TTA (◯), 2-Chloro-TTP (▾) or control (∇) was reacted with 100 uM DPPH dissolved in ethanol. The radical scavenging activity was determined by measuring the decrease in DPPH levels at 517 nm. *, Significant difference from the vehicle control, p<0.05 using ANOVA and Student-Neuman-Keuls' test.\nTo examine the free radical scavenging effects, 1-100 μM 2-Hydroxy-TTBA, 2-Hydroxy-TTA, 2-Hydroxy-TTS, 2-Chloro-TTP or trolox was reacted with 100 μM DPPH (2,2-diphenyl-1-picryl-hydrazyl radical), a stable free radical, dissolved in ethanol. After incubation for 30 min, relative decrease in DPPH absorption at 517 nm was measured by a spectrophotometer, mean ±SEM (n=3 test tubes per condition). *, Significant difference from the vehicle control (DPPH alone), p<0.05 using ANOVA and Student-Neuman-Keuls' test."}, "[2]": {"tested_on": "Sprague-Dawley rats, compression of T8 spinal cord", "test": "Mitochondrial ROS production after traumatic spinal cord injury", "assay_type": "in vivo, rat", "conditions": "50 mg/kg ip immediately after injury; analyzed 48 hr later", "description": "Adult rats received compression injury at the level of T8 spinal cord, alone (control) or with injections of 2-Hydroxy-TTBA (50 mg/kg, ip) and Mitotracker CM-H2X ROS immediately after injury. Animals were euthanized 2 d later, spinal cord sections sections immunostained with an antibody for NeuN (a neuronal marker protein), and levels of mitochondrial ROS in the dorsal horn neurons (DHN) analyzed by measuring fluorescence intensity of oxidized Mitotracker CM-H2X, mean ±S.E.M. [n=12 rats for each condition (5 spinal cord sections for each rat)]. *, Significant difference from the vehicle control, p<0.05 using the independent t-test.\nSprague-Dawley rats (250-300 g, female) received traumatic spinal cord injury by compression of the dorsal spinal cord. T8 segment of spinal cord was exposed on the dorsal side, compressed with 20 g for 10 min, and then mitochondrial CM-H2X Ros was immediately injected into the spinal cord. 2-Hydroxy-TTBA (50 mg/kg, ip) or a vehicle control (control) was injected with mitochondrial CM-H2X Ros. Levels of mitochondrial ROS in the dorsal horn neurons were analyzed 48 hr later as described above after immunolabeling with anti-NeuN antibody, a neuron-specific marker."}, "[3]": {"tested_on": "Mouse cortical cell cultures", "test": "FeCl2-induced free radical neurotoxicity in mixed cortical cell cultures (LDH assay)", "assay_type": "cell-based", "conditions": "continuous 50 μM FeCl2; LDH 24 hr later", "description": "(§1) Mouse cortical cell cultures (DIV 12-14) were exposed to continuously to 50 μM Fe^2+, alone or with inclusion of 0.1-100 μM 2-Hydroxy-TTBA (●) or trolox (◯), a membrane-permeable form of vitamin E). Neuronal death was analyzed 24 hr later by measuring levels of LDH released into the bathing medium, mean ±SEM (n=9-12 culture wells per condition), scaled to mean LDH efflux value 24 hr after sham wash (=0) and continuous exposure to 500 μM NMDA (=100). *, Significant difference from the vehicle control, p<0.05 using ANOVA and Student-Neuman-Keuls' test.\nas §1, with “alone (♦)” for “alone”, “1-30” for “0.1-100”, “2-Hydroxy-TTS (●), 2-Hydroxy-TTA (◯), 2-Chloro-TTP (▾), 2-Ethan-TTBA (∇), 2-Propan-TTBA (▪),” for “2-Hydroxy-TTBA (●)”, “2-Cyclohexan-TTBA (□).” for “trolox (◯), a membrane-permeable form of vitamin E).”\nFor mixed neuron-glia culture, mouse cerebral cortices were removed from brains of the 14-16 day-old-fetal mice (E14-16), gently triturated and plated on 24 well plates (2×10^5 cells/plate) precoated with 100 μg/ml poly-D-lysine and 4 μg/ml laminine. Cultures were maintained at 37° C. in a humidified 5% CO2 atmosphere. Plating media consist of Eagles minimal essential media (MEM, Earles salts, supplied glutamine-free) supplemented with 5% horse serum, 5% fetal bovine serum, 26.5 mM bicarbonate, 2 mM glutamine, and 21 mM glucose.\nAfter 7-8 days in vitro (DIV 7-8), 10 μM cytosine arabinofuranoside (Ara-C) was included to halt overgrowth of glia. The drug treatment was carried on DIV 12-15 cortical cell culture. Overall neuronal cell injury was assessed by measuring amount of lactate dehydrogenase (LDH) released into the bathing medium 24 hr after neurotoxic insults as previously described [Koh and Choi, J Neurosci Methods 20:83-90, 1987].\nMixed cortical cell cultures (DIV 13-15) were continuously exposed to 50 μM FeCl2, which produces hydroxyl radical via a Fenton reaction, alone or with inclusion of 2-Hydroxy-TTBA, 2-Hydroxy-TTA, 2-Hydroxy-TTS, 2-Chloro-TTP, 2-Ethan-TTBA, 2-Propan-TTBA, 2-Cyclohexan-TTBA or trolox (a vitamin E analogue) at indicated doses. Neuronal cell death was analyzed 24 hr later by LDH assay as described above. *, Significant difference from the vehicle control (FeCl2), p<0.05 using ANOVA and Student-Neuman-Keuls' test."}}}
{"smiles": "O=C(O)c1cc(NCc2c(F)c(F)c(C(F)(F)F)c(F)c2F)ccc1O", "note": "[2-Hydroxy-TTBA, 2-hydroxy-5-(2,3,5,6-tetrafluoro-4-trifluoromethylbenzylamino)benzoic acid]", "values": [{"measurement": "reduction of DPPH levels", "setting": "[1]", "value": "reduced levels of DPPH at lower doses"}, {"measurement": "mitochondrial ROS production in spinal cord neurons", "setting": "[2]", "value": "significantly reduced mitochondrial ROS production"}, {"measurement": "prevention of FeCl2-induced free radical neurotoxicity", "setting": "[3]", "value": "prevented FeCl2-induced free radical neurotoxicity in a dose-dependent manner"}, {"measurement": "strength relative to trolox in preventing free radical neurotoxicity", "setting": "[3]", "value": 30, "unit": "fold"}]}
